From patent US10844102B2, “Peptides, compositions, and methods for stimulating subcutaneous adipogenesis” (The Regents of the University of California, priority 2014, dated 2020)
Entries after “also recorded” stand apart in the source; their conditions may differ. Where two headings read alike, the source gives them in different places.

Key:
adipogenesis [1] = test: Adipogenic activity of peptides and peptide fragments, assay not specified; assay type: cell-based; settings: assay not specified
Description: In the second approach, a series of truncations and alanine mutagenesis on peptide B were performed in order to identify the smallest active sequence. Fragments of peptide B were prepared and assayed for adipogenesis. First, fragments corresponding to the two halves of peptide B were prepared (KLKDENS (SEQ ID NO: 8) and SQLKSEVSK (SEQ ID NO: 13)).

[2] = tested on: rat mesenchymal stem cells; test: Assay 1: adipogenesis, Oil Red O staining (transdifferentiation of fibroblast lineages into adipocytes); assay type: cell-based; settings: for adipogenic activity in Assay 1: Assay 1, Oil Red O, concentration not given; for adipogenesis quantified by Oil Red O staining, fold change relative to the negative control: three weeks
Description: Reagents: (1) 3-isobutyl-1-methylxanthine (IBMX) solution: 0.5M in DMSO; (2) Insulin Solution: 10 mg/mL recombinant human insulin; (3) Dexamethasone Solution in 10 mM in ethanol; (4) Oil Red O (0.36% in 60% isopropanol).
Adipogenesis Initiation Media: mesenchymal stem cell expansion media/0.5 mM IBMX/1 μM dexamethasone. Mesenchymal stem cell expansion media is commercially available from Millipore. The IBMX Solution was diluted 1:1000 and the Dexamethasone Solution was diluted 1:10,000 in expansion media containing antibiotics and antimycotics. The prepared media was stored at 4° C.
Adipogenesis Progression Media for positive control: mesenchymal stem cell expansion media/10 μg/mL insulin. The Insulin Solution was diluted 1:1000 in the expansion media and stored at 4° C.
Experimental Adipogenesis Progression Media: mesenchymal stem cell expansion media/1-100 μg/mL RHAMM antagonist peptides.
Adipogenesis Maintenance Media: mesenchymal stem cell expansion media containing antibiotics and antimycotics.
Negative Control Media: Dulbecco's Modified Eagle's Medium (DMEM)/10% normal calf serum.
Pre-adipocyte stem cells including bone marrow mesenchymal stem cells and fibroblasts were propagated using standard tissue culture methods. Cells were trypsinized to remove the cells from the substratum. The trypsin was neutralized and cells were counted using a hemocytometer. Cells were resuspended at 20,000 cells/mL in expansion media. 1 mL of cell suspension was plated per well of 48-well plate, with several wells left empty for blank well (blank control) staining.
Cells were incubated until they reached confluency. When cells were fully confluent, the expansion media was replaced with 0.5 mL of Adipogenesis Initiation Media. For negative controls (no insulin, no peptides), expansion media only was used at this step and for subsequent media changes. For all media changes, media was replaced as gently as possible to avoid disturbing the monolayer.
Cells were incubated in Adipogenesis Initiation Media for 72 hours at 37° C., 5% CO2. 0.5 mL media was then removed from each well, and replaced with 0.5 mL of either positive control or experimental Adipogenesis Progression Media per well. Cells were again incubated for 96 hours at 37° C., 5% CO2, after which time media was replaced every 48 hours with Adipogenesis Maintenance Media (0.5 mL of media was removed from each well and replaced with 0.5 mL Adipogenesis Maintenance Media per well). Media added to empty wells served as blank controls for blank well background staining. Cells were incubated in Adipogenesis Maintenance Medium for at least 96 hours at 37° C., 5% CO2 after which time media was replaced with Adipogenesis Maintenance Medium. Lipid droplets had appeared by the time Adipogenesis Maintenance Medium was initially added and continued to accumulate and increase in size for 7-14 days. Experiments were terminated between seven and fourteen days after the initial addition of Adipogenesis Maintenance Medium.
For quantification of Oil Red O staining, media was removed and cells were washed twice with PBS, using care to gently add the PBS. Cells were then fixed in 4% paraformaldehyde (0.5 mL/well) and incubated for 30 minutes. The fixation solution was then removed and wells were washed two times with 1 mL of phosphate buffered saline (PBS) and once with 1 mL Milli-Q water. 0.25 mL Oil Red O solution was added per well of 48-well plate, including to the wells lacking cells, but containing media. Cells were incubated for 15 minutes at room temperature. The staining solution was then removed and wells were washed two times with 1 mL of Milli-Q water and once with washing solution (63% isopropanol in water).
Adipogenesis was quantified using a spectrophotometer. 0.25 mL Dye Extraction Solution (isopropyl alcohol) was added per well, and the plate was set on an orbital shaker or platform rocker for 30 minutes. […]

dermis of aged rats = test: Rat dermal skin model of adipogenesis (injection into the dermis of aged rats); assay type: in vivo; settings: injected into the dermis of aged rats / rat skin
adipogenesis [3] = settings: earlier reports, WO 2014/082042 and background; cited from earlier work
[4] = tested on: human primary cells directly isolated from human subcutaneous fat or dermal tissue; test: Human primary cells isolated from subcutaneous fat or dermal tissue; assay type: cell-based

Substance	adipogenic activity (adipogenesis [1])	adipogenic activity in Assay 1 [2]	adipogenesis quantified by Oil Red O staining, fold change relative to the negative control ([2]; Assay 1, peptide 5 μg/ml)	adipogenesis quantified by Oil Red O staining, fold change relative to the negative control ([2]; Assay 1, peptide 50 μg/ml)	adipogenic effects in rat skin (dermis of aged rats)	adipogenic activity (adipogenesis [3])	specific activity among the 9-mer, 7-mer and 6-mer fragments ([2]; Assay 1)	adipogenic activity in human primary cells [4]
KLKDENSQLK (listed as Homo sapiens)	has adipogenic activity; also recorded: are adipogenic	exhibited activity	significant increase in adipogenesis	significant increase in adipogenesis				
KLKDENSQLR (listed as Erinaceus europaeus)		promising results						
KSEVSK (listed as Homo sapiens) [reference compound]	also found to be adipogenic	exhibit adipogenic activity			induce large fat pads	strongly adipogenic	highest specific activity	exhibited adipogenic activity
KTRAHHV (listed as Paenibacillus polymyxa)		ablated adipogenic activity						
